The test system of one data set is Folsomia candida. Particulars: chronic/long-term; duration: 28 days; reproduction.
Another data set relates to Daphnia magna. To be noted: chronic/long-term; duration: 21 days.
For the next data set, the system named is Apis mellifera. To be noted: acute, mortality.
A further data set relates to Colinus virginianus. Particulars: reproduction developmental.
The next data set relates to Rattus norvegicus. Particulars: acute; oral; mortality.
The subject of the next data set is Bibionidae. To be noted: chronic/long-term; duration: 28 days.
The test system of another data set is Anas platyrhynchos. Particulars: acute; oral; unspecified; mortality.
For the next data set, the system named is Aphidius rhopalosiphi. Put plainly: LR50; higher = less toxic.

Values after ≈ are worked out from the molar mass of the structure shown. Where only a bound is given, the exact number is not on record here.

The record followed here is EPA's ToxValDB 9.5 (doi:10.2903/j.efsa.2018.5151).

One may read the LC50 as the concentration that kills 50% of the test population. The NOAEL is the highest dose or exposure tested at which no adverse effect was seen.

`COC(=O)Nc1cccc(OC(=O)Nc2cccc(C)c2)c1` [Phenmedipham] gave an LC50 with Oncorhynchus mykiss (acute, duration: 96 hours, mortality) of 1.84 µg/mL (≈ 6.13 µM). The NOEC in the data set with Oncorhynchus mykiss (chronic/long-term, duration: 92 days, growth) was 0.041 mg/L; in the data set with Folsomia candida, 500 mg/kg; in the data set on Daphnia magna, 0.005 mg/L; with Bibionidae, no less than 6.86 mg/L. Moreover, the LD50 in the data set on Apis mellifera (dermal) is greater than 100 µg/piece; in the data set with Apis mellifera (oral, unspecified), greater than 105 µg/piece; in the data set with Rattus norvegicus it was greater than 5000 mg/kg-day; in the data set on Anas platyrhynchos it was greater than 2500 mg/kg-day. The same compound displayed an NOAEL in the data set on Colinus virginianus of 121 mg/kg-day. The LR50 in the data set with Aphidius rhopalosiphi (acute, mortality) is greater than 294 g/ha; in the data set with Aphidius rhopalosiphi (chronic/long-term, duration: 14 days, no effects) it was greater than 960 g/ha.
